Source: publication PMC5840523, “Assessment of a pretomanid analogue library for African trypanosomiasis: Hit-to-lead studies on 6-substituted 2-nitro-6,7-dihydro-5H-imidazo[2,1-b][1,3]thiazine 8-oxides” (Bioorganic & Medicinal Chemistry Letters, 2018)
Converted amounts (≈) assume the structure as drawn. Read-outs that look alike come from different tables or passages of the source.

Tests used:
T. b. brucei 427 = T. b. brucei 427 growth inhibition (Scynexis); assay type: cell-based, Trypanosoma brucei brucei
L929 mouse fibroblasts = assay: Cytotoxicity toward L929 mouse fibroblasts (Scynexis); assay type: cell-based
Mouse liver S9 stability = assay type: in vitro ADME; settings: CD-1, mouse, mouse liver S9 subcellular fraction, half-life in mouse liver S9 fraction; read-out: Mouse S9 t1/2
[1] = Kinetic aqueous solubility in pH 7.4 PBS; assay type: physicochemical
From the text: Table 1 Inhibitory potency, metabolic stability, aqueous solubility, and MDCK-MDR1 cell permeability for 15 screening hits against T. b. brucei. | column: Solubility ^c / (µg/mL)

[2] = Mouse pharmacokinetics (plasma, whole blood, brain); assay type: in vivo, male CD-1 mice; settings: for bioavailability: from dose normalised AUClast values, read-out: F (oral bioavailability); for Vd: read-out: Vdss
Procedure: In order to determine the suitability of the more permeable hits for in vivo efficacy studies, we first measured their aqueous solubilities, and their tendencies to metabolise, following a 1 h incubation with CD-1 mouse liver S9 subcellular fractions.[14] […] This led us to probe their in vivo pharmacokinetic (PK) profiles in mice, examining concentration levels in plasma, whole blood and brain tissue following both intravenous and oral administration (Table 2; for further experimental details, see the Supporting Information). […]
Mouse Pharmacokinetics. The in-life portion of PK testing was carried out by ViviSource Laboratories, Inc., Mass achusetts, USA, and PK samples were anal ysed by Sc ynexis, Inc.
Test compounds (9, 12, 17, and 19) w er e each administered as single doses to groups of 10 male CD-1 mice by bolus intravenous injection or oral gavage. Intravenous dosing (at a nominal dose of 2 mg/kg) emplo yed a solution vehicle comprising either 20% EtOH, 20% propylene gl ycol, and 30% PEG -400 in normal saline (for powders 9, 17, and 19) or 0.5% (hydrox yprop yl)meth ylcellulose, 0.4% Tween 80, 0.5% benz yl alcohol, and 20% DMSO i n deionised water (for oil 12). […]
in 0.5% methylcellulose, 0.08% Tween 80 in water ( ex cept fo r oil 12, where the formulation additionally contained 20% DMSO). […]

[3] = set-up: method as in PMID 25141257; settings: cited from earlier work
in vitro = settings: dog, MDCK-MDR1, Permeability Papp
T. b. brucei = tested on: T. b. brucei; set-up: method as in PMID 20439607; settings: read-out: IC50 versus T. b. brucei; cited from earlier work
[4] = late stage HAT patients; cited from earlier work
[5] = male, CD-1, mouse, brain, intravenous, corrected doses 0.5, 1.1, 2.9, 2.0 mg/kg for 9, 12, 17, 19
[6] = male, CD-1, mouse, brain, oral, corrected doses 62, 50, 78, 49 mg/kg for 9, 12, 17, 19
[7] = male, CD-1, mouse, plasma, intravenous, corrected doses 0.5, 1.1, 2.9, 2.0 mg/kg for 9, 12, 17, 19
[8] = male, CD-1, mouse, plasma, oral, corrected doses 62, 50, 78, 49 mg/kg for 9, 12, 17, 19
[9] = male, CD-1, mouse, whole blood, intravenous, corrected doses 0.5, 1.1, 2.9, 2.0 mg/kg for 9, 12, 17, 19
[10] = male, CD-1, mouse, whole blood, oral, corrected doses 62, 50, 78, 49 mg/kg for 9, 12, 17, 19

## O=[N+]([O-])c1cn2c(n1)OC[C@@H](NCc1ccc(OC(F)(F)F)cc1)C2 [Compound 17]
T. b. brucei 427; L929 vs T. b. brucei
  Selectivity Index: >13
T. b. brucei 427; Trypanosoma brucei, growth inhibition of T. b. brucei 427, mean ± SD
  IC50: 0.78 ± 0.01 µg/mL (≈ 2.18 µM)
L929 mouse fibroblasts
  IC50: > 10 µg/mL
Mouse liver S9 stability
  half-life: > 5.83 h
[1]
  solubility: > 72 µg/mL
[2]; male, CD-1, mouse, in vivo, po
  time beyond which exposure above the MIC is inadequate: ~2 h
[2]; male, CD-1, mouse, po, 78 mg/kg, over plasma, whole blood, brain, read-out: oral half-life
  half-life: 1.2 to 1.5 h
[2]; male, CD-1, mouse, po, brain
  bioavailability: 100%
[2]; male, CD-1, mouse, po, plasma
  bioavailability: 100%
[2]; male, CD-1, mouse, po, whole blood
  bioavailability: 100%
[2]; [5]
  AUC(0-t): 962 ng·h/mL
  clearance: 48.3 mL/min/kg
  Vd: 2.3 L/kg
[2]; male, CD-1, mouse, brain, intravenous, corrected doses 0.5, 1.1, 2.9, 2.0 mg/kg for 9, 12, 17, 19, read-out: t1/2 (converted)
  half-life: 0.26 h
[2]; [6]
  AUC(0-t): 50900 ng·h/mL
  Cmax: 35000 ng/mL
  Tmax: 0.5 h
[2]; male, CD-1, mouse, brain, oral, corrected doses 62, 50, 78, 49 mg/kg for 9, 12, 17, 19, read-out: t1/2 (converted)
  half-life: 1.3 h
[2]; [7]
  AUC(0-t): 418 ng·h/mL
  clearance: 113 mL/min/kg
  Vd: 4.7 L/kg
[2]; male, CD-1, mouse, plasma, intravenous, corrected doses 0.5, 1.1, 2.9, 2.0 mg/kg for 9, 12, 17, 19, read-out: t1/2 (converted)
  half-life: 0.48 h
[2]; [8]
  AUC(0-t): 20500 ng·h/mL
  Cmax: 12000 ng/mL
  Tmax: 1 h
[2]; male, CD-1, mouse, plasma, oral, corrected doses 62, 50, 78, 49 mg/kg for 9, 12, 17, 19, read-out: t1/2 (converted)
  half-life: 1.2 h
[2]; [9]
  AUC(0-t): 1100 ng·h/mL
  clearance: 40 mL/min/kg
  Vd: 8.1 L/kg
[2]; male, CD-1, mouse, whole blood, intravenous, corrected doses 0.5, 1.1, 2.9, 2.0 mg/kg for 9, 12, 17, 19, read-out: t1/2 (converted)
  half-life: 9.3 h
[2]; [10]
  AUC(0-t): 42200 ng·h/mL
  Cmax: 26000 ng/mL
  Tmax: 0.5 h
[2]; male, CD-1, mouse, whole blood, oral, corrected doses 62, 50, 78, 49 mg/kg for 9, 12, 17, 19, read-out: t1/2 (converted)
  half-life: 1.5 h
[2]; mouse, in vivo
  concentration levels in brain tissue relative to plasma (fold higher): 2- to 3 fold
[3]
  oral half-life in mouse lung tissue: 1.3 h
In vitro
  Papp at 1 h, 3 µM: 80.4 ×10⁻⁶ cm/s

## O=[N+]([O-])c1cn2c(n1)OC[C@@H](OCc1ccc(OC(F)(F)F)cc1)C2 [Compound 6, pretomanid]
T. b. brucei
  IC50: 38 µM
[3]
  oral half-life in mouse lung tissue: 4.8 h

## Nc1nc(N)nc(Nc2ccc([As]3SCC(CO)S3)cc2)n1 (stereo not shown) [melarsoprol]
[4]
  death of patients caused by treatment: ~5%
